Reference: US20200109362A1 (priority 2016, published 2020)
Entries after “also recorded” stand apart in the source; their conditions may differ.

Key:
Format in all cases: cell-based, human
[1] = tested on: TK6 cells
[2] = tested on: TK6+MGMT cells; assay: ToxChip (μCC) microcolony toxicity assay, TK6+MGMT cells; settings: TK6+MGMT vs TK6
[3] = tested on: MCL-5 cells; assay: ToxChip (μCC) microcolony toxicity assay, MCL-5 cells

In the case of `O=NN(CCCl)C(=O)NCCCl` [BCNU, N,N′-bis (2-chloroethyl)-N-nitrosourea], the “PF value as % of the control PF” value ([1]; TK6 cells, 10 μM BCNU) is reported as 96%, the “PFF (total PF fluorescence) as % of the control PFF” value ([1]; TK6 cells, 10 μM BCNU) is reported as 53% and the “microcolony growth (F/M distribution) after treatment” value ([1]; TK6 cells, BCNU 1 hour, up to 72 hours growth) is reported as “less able to form larger colonies; also recorded: inhibits growth of colonies”. For the same compound, the “difference in survival between TK6 and TK6+MGMT when challenged” value ([2]; PFF method) was “approximately 1 log” and the “difference in sensitivity between TK6 and TK6+MGMT” value ([2]; μCC, treatment 1 hour at 37° C.) was “significant difference in sensitivity; also recorded: MGMT significantly rescues TK6 cells”.

For `CC(=O)N1CCN(c2ccc(OCC3COC(Cn4ccnc4)(c4ccc(Cl)cc4Cl)O3)cc2)CC1` (stereo not drawn) [KET, ketoconazole], the “rescue of MCL-5 cells from AFB1 toxicity by co-treatment” value [3] was “significant rescue; also recorded: significantly rescues”.

aflatoxin B1 [AFB1] was tested, and the “toxicity to TK6 cells” value [1] was “relatively unaffected”, the “difference in sensitivity between TK6 and MCL-5 cells” value [3] was “more than 2 log” and the “sensitivity of MCL-5 cells compared with TK6 cells” value [3] was “significantly more sensitive”.
